Assay results from patent publication US9517228B2, “Cannabinoid receptor antagonists/inverse agonists useful for treating metabolic disorders, including obesity and diabetes” (Jenrin Discovery, priority 2012, dated 2016).

Target: CB1R (Mus musculus (Mouse), UniProt P47746)
Sequence (P47746 whole entry): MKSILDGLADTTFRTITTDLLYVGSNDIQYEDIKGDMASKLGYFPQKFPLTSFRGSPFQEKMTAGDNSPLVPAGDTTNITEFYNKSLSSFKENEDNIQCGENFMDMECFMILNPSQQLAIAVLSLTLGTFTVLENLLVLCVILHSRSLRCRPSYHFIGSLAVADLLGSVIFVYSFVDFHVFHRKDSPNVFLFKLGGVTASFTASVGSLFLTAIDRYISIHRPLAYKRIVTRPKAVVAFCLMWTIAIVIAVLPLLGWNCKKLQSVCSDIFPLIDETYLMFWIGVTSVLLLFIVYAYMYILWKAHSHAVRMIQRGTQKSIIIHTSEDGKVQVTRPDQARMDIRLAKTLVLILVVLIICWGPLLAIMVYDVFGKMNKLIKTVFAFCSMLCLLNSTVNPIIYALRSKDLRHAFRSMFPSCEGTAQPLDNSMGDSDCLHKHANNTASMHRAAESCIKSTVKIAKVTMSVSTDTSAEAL
Assay: CB1R competition displacement binding with [3H]CP-55,940
Details: [3H]CP-55,940 radioligand, crude membranes from mouse brain, triplicates; read-out: CB1 IC50
Experimental: Compound binding to CB1R was assessed in competition displacement assays using [3H]CP-55,940 as the radioligand and crude membranes from mouse brain. See Tam, J., Vemuri, V. K., Liu, J., Batkai, S., Mukhopadhyay, B., Godlewski, G., Osei-Hyiaman, D., Ohnuma, S., Ambudkar, S. V., Pickel, J., et al., J. Clin. Invest. 2010, 120, 2953-2966. All data were in triplicates with Ki values determined from three independent experiments.
`NC(=O)CN/C(=N\S(=O)(=O)c1ccc(Cl)cc1)N1C[C@H](c2ccccc2)C(c2ccc(Cl)cc2)=N1` [Example 1] gave an IC50 of under 100 nM.
`NC(=O)[C@H](CO)N/C(=N\S(=O)(=O)c1ccc(Cl)cc1)N1C[C@H](c2ccccc2)C(c2ccc(Cl)cc2)=N1` [Example 3] showed an IC50 of under 100 nM.
In the case of `C[C@@H](O)[C@H](N/C(=N\S(=O)(=O)c1ccc(Cl)cc1)N1C[C@H](c2ccccc2)C(c2ccc(Cl)cc2)=N1)C(N)=O` [Example 2, (2S,3R)-2-((S)-3-(4-chlorophenyl)-N′-((4-chlorophenyl)sulfonyl)-4-phenyl-4,5-dihydro-1H-pyrazole-1-carboximidamido)-3-hydroxybutanamide], the IC50 is reported as under 100 nM.
`CC(C)[C@H](N/C(=N\S(=O)(=O)c1ccc(Cl)cc1)N1C[C@H](c2ccccc2)C(c2ccc(Cl)cc2)=N1)C(N)=O` [Example 4] showed an IC50 of under 100 nM.
In the case of `NC(=O)CN/C(=N\S(=O)(=O)c1ccc(Cl)cc1)N1C[C@@H](c2ccccc2)C(c2ccc(Cl)cc2)=N1` [Example 1a], the IC50 is reported as over 1000 nM.
`NC(=O)[C@H](CO)N/C(=N\S(=O)(=O)c1ccc(Cl)cc1)N1C[C@@H](c2ccccc2)C(c2ccc(Cl)cc2)=N1` [Example 3a] showed an IC50 of 500 to 1000 nM.
With `C[C@@H](O)[C@H](N/C(=N\S(=O)(=O)c1ccc(Cl)cc1)N1C[C@@H](c2ccccc2)C(c2ccc(Cl)cc2)=N1)C(N)=O` [Example 2a, (2S,3R)-2-((R)-3-(4-chlorophenyl)-N′-((4-chlorophenyl)sulfonyl)-4-phenyl-4,5-dihydro-1H-pyrazole-1-carboximidamido)-3-hydroxybutanamide] the IC50 was over 1000 nM.
For `CC(C)[C@H](N/C(=N\S(=O)(=O)c1ccc(Cl)cc1)N1C[C@@H](c2ccccc2)C(c2ccc(Cl)cc2)=N1)C(N)=O` [Example 4a], the IC50 was over 1000 nM.

Tested on: not given
Assay: not given
Details: type 2 diabetes patients not on other anti-diabetic medications, six months of treatment, baseline value 7.9; cited from earlier work
In the case of `Cc1c(C(=O)NN2CCCCC2)nn(-c2ccc(Cl)cc2Cl)c1-c1ccc(Cl)cc1` [rimonabant], the HbA1c levels lowered is listed as 0.8%.
